The source of these data is US11793801B2, “Treatment of pain and neurological conditions” (BioCorRx, Inc., priority 2020, dated 2023).

One series relates to Sigma opiate sites. Briefly: in vitro pharmacology at Sigma sites. The class given is binding.
In a further series the target is Delta (DOP) receptor (Homo sapiens, UniProt P41143). Briefly: in vitro pharmacology at Delta (DOP) receptor. Format: biochemical.
Series [1] has as its target T1, adrenergic receptor Alpha 1B (Homo sapiens, UniProt P35368).
T1 sequence (P35368 1-520): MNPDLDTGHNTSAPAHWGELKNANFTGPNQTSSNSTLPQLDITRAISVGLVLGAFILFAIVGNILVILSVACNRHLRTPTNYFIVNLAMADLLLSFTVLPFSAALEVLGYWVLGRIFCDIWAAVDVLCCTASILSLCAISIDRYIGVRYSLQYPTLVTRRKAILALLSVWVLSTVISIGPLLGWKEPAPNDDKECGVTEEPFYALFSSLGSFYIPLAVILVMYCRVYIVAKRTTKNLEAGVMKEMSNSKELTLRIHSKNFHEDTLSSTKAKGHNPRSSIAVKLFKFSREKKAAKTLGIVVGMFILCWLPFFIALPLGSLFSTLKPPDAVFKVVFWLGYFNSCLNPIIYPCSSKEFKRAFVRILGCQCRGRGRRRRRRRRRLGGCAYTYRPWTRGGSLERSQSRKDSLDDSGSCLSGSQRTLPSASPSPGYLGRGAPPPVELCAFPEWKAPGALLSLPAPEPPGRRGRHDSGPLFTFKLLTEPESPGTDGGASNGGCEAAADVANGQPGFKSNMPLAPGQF
Briefly: in vitro antagonistic activity, adrenergic Alpha 1B. The class given is biochemical.

In series [2] the target is T2, adrenergic receptor Alpha 2B (Homo sapiens, UniProt P18089).
T2 sequence (P18089 1-450): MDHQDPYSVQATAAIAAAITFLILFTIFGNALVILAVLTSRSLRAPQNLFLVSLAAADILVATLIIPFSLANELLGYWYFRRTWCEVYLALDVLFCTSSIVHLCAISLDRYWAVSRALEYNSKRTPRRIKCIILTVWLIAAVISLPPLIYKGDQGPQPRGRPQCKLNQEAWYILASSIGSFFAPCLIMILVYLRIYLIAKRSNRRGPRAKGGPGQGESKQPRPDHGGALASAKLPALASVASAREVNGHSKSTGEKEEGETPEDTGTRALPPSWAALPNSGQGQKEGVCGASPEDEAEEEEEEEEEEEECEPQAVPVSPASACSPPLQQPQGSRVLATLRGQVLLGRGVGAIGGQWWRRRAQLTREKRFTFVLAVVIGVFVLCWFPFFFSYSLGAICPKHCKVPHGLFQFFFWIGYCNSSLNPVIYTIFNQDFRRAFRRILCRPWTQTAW
Briefly: in vitro antagonistic activity, adrenergic Alpha 2B. The class given is biochemical.

Series [3] has as its target T3, adrenergic receptor Alpha 2C (Homo sapiens, UniProt P18825).
T3 sequence (P18825 1-462): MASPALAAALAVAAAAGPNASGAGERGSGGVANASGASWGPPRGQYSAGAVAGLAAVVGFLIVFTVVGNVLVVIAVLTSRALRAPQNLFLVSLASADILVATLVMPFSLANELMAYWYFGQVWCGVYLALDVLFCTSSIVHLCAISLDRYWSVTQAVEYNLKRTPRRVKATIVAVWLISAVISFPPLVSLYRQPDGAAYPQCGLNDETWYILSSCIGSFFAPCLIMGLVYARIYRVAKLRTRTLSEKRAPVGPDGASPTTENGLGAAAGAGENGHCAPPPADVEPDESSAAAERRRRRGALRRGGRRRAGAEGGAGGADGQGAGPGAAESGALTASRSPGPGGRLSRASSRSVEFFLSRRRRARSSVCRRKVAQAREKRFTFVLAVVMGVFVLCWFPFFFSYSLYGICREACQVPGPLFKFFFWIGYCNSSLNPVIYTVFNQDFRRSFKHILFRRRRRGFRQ
Briefly: in vitro antagonistic activity, adrenergic Alpha 2C. Format: biochemical.

Another series deals with histamine H1 receptor (Homo sapiens, UniProt P35367). Briefly: in vitro antagonistic activity, histamine H1. The class given is biochemical.
histamine H1 receptor, sequence (P35367 whole entry, species assumed): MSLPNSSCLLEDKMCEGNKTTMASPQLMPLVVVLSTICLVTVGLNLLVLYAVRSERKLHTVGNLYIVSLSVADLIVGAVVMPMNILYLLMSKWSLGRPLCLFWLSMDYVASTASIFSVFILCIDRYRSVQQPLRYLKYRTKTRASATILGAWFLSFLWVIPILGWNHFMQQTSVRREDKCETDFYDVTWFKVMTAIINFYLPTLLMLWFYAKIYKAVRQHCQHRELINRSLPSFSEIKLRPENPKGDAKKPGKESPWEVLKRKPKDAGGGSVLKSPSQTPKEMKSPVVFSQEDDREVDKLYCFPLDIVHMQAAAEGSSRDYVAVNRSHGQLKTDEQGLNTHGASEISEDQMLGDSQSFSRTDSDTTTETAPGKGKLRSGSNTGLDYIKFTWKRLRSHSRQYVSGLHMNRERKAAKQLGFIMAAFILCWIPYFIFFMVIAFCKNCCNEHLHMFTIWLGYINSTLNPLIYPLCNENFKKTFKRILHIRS
The target in series [4] is T4, cholinergic muscarinic receptor 1 (Homo sapiens, UniProt P11229).
T4 sequence (P11229 1-460): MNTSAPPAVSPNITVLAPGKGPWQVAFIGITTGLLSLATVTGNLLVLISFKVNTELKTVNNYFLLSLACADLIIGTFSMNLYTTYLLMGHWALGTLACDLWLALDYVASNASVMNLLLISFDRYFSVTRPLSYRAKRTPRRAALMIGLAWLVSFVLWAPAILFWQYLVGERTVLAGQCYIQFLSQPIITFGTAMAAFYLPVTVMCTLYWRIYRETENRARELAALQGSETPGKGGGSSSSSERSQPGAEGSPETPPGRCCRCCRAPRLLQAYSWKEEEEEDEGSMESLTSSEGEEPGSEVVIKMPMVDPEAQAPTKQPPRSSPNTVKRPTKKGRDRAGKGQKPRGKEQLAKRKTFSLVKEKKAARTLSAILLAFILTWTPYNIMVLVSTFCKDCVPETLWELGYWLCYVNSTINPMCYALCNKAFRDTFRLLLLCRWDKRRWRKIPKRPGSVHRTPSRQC
Briefly: in vitro antagonistic activity, muscarinic 1. The class given is biochemical.

For series [5], the target named is cholinergic muscarinic receptor 3 (Homo sapiens, UniProt P20309). Briefly: in vitro antagonistic activity, muscarinic 3. Format: biochemical.
cholinergic muscarinic receptor 3, sequence (P20309 whole entry): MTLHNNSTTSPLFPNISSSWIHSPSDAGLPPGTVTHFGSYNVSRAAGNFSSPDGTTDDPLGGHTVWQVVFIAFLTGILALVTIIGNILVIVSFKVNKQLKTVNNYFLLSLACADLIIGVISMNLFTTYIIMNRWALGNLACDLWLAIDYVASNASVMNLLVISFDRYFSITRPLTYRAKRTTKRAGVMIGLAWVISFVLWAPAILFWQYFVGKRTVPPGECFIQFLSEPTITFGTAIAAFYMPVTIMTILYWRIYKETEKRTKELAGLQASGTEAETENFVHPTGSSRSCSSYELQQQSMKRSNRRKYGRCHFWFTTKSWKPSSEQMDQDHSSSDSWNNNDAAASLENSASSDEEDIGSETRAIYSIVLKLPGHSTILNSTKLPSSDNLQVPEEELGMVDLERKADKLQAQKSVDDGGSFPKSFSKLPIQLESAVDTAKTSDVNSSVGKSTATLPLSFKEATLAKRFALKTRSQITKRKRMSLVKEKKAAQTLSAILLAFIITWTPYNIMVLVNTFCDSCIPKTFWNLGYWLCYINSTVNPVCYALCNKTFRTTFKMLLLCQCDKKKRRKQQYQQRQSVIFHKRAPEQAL
Series [6] deals with T5, cholinergic muscarinic receptor 4 (Homo sapiens, UniProt P08173).
T5 sequence (P08173 1-479): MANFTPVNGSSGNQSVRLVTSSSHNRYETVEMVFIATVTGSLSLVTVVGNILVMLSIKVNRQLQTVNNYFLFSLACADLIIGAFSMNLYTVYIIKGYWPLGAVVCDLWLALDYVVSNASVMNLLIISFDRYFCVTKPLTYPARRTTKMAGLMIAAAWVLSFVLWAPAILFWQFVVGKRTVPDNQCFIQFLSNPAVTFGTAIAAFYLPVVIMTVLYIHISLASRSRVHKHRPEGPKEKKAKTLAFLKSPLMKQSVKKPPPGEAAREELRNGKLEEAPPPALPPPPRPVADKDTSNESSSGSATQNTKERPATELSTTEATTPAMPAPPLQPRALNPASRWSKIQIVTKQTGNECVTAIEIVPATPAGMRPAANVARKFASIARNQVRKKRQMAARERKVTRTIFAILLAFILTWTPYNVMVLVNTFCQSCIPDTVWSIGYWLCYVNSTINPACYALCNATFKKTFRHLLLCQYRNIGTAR
In words: in vitro antagonistic activity, muscarinic 4. Format: biochemical.

Series [7] concerns the target T6, cholinergic muscarinic receptor 5 (Homo sapiens, UniProt P08912).
T6 sequence (P08912 1-532): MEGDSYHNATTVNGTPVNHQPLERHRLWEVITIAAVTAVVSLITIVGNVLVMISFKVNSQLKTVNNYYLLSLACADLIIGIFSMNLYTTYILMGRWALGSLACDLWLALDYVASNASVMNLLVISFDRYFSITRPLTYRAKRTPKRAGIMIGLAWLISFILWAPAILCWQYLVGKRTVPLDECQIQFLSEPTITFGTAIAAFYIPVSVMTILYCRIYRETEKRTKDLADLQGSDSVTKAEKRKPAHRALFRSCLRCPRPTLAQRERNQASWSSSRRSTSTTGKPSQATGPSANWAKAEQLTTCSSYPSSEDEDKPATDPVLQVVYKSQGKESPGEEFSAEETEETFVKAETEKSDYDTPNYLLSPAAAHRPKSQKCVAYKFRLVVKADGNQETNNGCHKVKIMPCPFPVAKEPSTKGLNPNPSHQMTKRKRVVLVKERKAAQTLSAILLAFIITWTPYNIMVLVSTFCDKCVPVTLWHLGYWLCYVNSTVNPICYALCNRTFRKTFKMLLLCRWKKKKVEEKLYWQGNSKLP
Briefly: in vitro antagonistic activity, muscarinic 5. Format: biochemical.

The next series has as its target T7, dopamine D4 receptor (Homo sapiens, UniProt P21917).
T7 sequence (P21917 1-419): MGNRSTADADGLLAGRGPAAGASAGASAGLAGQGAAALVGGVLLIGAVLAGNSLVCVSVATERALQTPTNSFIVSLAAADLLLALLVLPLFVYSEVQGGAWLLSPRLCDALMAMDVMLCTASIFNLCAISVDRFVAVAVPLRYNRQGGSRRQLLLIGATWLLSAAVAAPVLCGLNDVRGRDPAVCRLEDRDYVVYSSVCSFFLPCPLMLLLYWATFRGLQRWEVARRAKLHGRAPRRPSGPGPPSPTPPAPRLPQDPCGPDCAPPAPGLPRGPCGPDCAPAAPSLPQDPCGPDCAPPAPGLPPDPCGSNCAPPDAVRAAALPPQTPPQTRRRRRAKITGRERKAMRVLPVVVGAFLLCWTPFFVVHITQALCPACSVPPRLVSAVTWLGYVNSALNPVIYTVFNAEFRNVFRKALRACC
Briefly: in vitro antagonistic activity, dopamine D4. Format: biochemical.

The target in the next series is T8, serotonin receptor 1A (Homo sapiens, UniProt P08908).
T8 sequence (P08908 1-422): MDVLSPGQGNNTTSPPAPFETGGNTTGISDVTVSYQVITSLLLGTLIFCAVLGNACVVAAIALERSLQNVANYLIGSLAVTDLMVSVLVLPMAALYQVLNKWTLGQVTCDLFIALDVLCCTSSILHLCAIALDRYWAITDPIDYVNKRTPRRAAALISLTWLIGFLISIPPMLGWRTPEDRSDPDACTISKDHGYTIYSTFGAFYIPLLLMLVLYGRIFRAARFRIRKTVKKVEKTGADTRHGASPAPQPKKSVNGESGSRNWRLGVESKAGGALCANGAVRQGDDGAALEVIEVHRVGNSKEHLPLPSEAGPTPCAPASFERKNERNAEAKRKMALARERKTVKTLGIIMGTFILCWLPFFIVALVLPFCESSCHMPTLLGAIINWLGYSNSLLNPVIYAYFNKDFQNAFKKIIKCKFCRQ
In words: in vitro antagonistic activity, serotonin 1A. The class given is biochemical.

The next series deals with morphine addicted rats. In words: opioid withdrawal signs in morphine addicted rats. Format: in vivo.

Read-outs that look alike come from different tables or passages of the source.

Delta (DOP) receptor, sequence (P41143 whole entry): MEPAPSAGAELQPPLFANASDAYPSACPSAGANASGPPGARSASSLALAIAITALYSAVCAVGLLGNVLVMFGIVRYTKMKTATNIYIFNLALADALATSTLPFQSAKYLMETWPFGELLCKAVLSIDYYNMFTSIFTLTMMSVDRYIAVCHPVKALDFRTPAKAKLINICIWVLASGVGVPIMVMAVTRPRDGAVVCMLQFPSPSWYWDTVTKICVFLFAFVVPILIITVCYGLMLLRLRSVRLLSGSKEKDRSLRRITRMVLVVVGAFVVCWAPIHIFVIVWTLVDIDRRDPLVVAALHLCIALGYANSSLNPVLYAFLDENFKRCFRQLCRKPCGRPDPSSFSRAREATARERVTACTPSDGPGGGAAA

In the case of `O=C1CC[C@@]2(O)[C@H]3Cc4ccc(O)c5c4[C@@]2(CCN3CC2CC2)[C@H]1O5` [Naltrexone, reference compound], the “Receptor Sigma: affinity” value in the series with Sigma opiate sites is listed as “Weak”.

Turning to `CCC(=O)NC1CC(C)N(CCc2ccccc2)CC1C` (centres unmarked) [Compound 1, N-[2,5-dimethyl-1-(2-phenylethyl)piperidin-4-yl]propanamide], the “Receptor Delta (DOP): mode of action” value on Delta (DOP) receptor is “Antagonist”. In addition, the “Receptor Sigma: affinity” value with Sigma opiate sites is “High Affinity”; in the series on Sigma opiate sites (listed as compound 1), “further activity”. Moreover, in series [1], the “activity at adrenergic receptor Alpha 1B” value was “antagonistic activity”. The “activity at adrenergic receptor Alpha 2B” value in series [2] is on record as “antagonistic activity”. For the same compound, the “activity at adrenergic receptor Alpha 2C” value in [3] is on record as “antagonistic activity”. On histamine H1 receptor, the “activity at histamine H1 receptor” value is reported as “antagonistic activity”. Moreover, the “activity at cholinergic muscarinic receptor 1” value in series [4] is on record as “antagonistic activity”. The “activity at cholinergic muscarinic receptor 3” value in series [5] is reported as “antagonistic activity”. Also, the “activity at cholinergic muscarinic receptor 4” value in [6] is on record as “antagonistic activity”. Moreover, in series [7], the “activity at cholinergic muscarinic receptor 5” value was “antagonistic activity”. In addition, the “activity at dopamine D4 receptor” value at dopamine D4 receptor is listed as “antagonistic activity”. The “activity at serotonin receptor 1A” value at serotonin receptor 1A was “antagonistic activity”. Moreover, the opioid withdrawal signs result in the series on morphine addicted rats is “few if any opioid withdrawal signs”.

As for `C=CCN1CC[C@]23c4c5ccc(O)c4O[C@H]2C(=O)CC[C@@]3(O)[C@H]1C5` [Naloxone, reference compound], the “Receptor Sigma: affinity” value in the series on Sigma opiate sites is “Weak”. Also, the opioid withdrawal signs result in the series with morphine addicted rats is on record as “withdrawal effects”.
